Test results: patent US10131652B2, “Pyrimidinyloxy benzene derivatives as herbicides” (E. I. DU PONT DE NEMOURS AND COMPANY, priority 2014, dated 2018)
Where two headings read alike, the source gives them in different places.

Experiments:
Assay type in all cases: in vivo
[1] = tested on: pigweed (Amaranthus retroflexus); assay: Test B pre-/postemergence plant response; details: Amaranthus retroflexus, 240 h, 1000 g ai/ha, 0 to 100 scale (0 no effect, 100 complete control), read-out: Plant response rating, Pigweed
Procedure, shortened: (§1)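 Evaluation is visual, about 10 days after application, rating injury from 0 (none) to 100 (complete control) relative to untreated controls. Application was a preemergence soil spray on seeded pots or a postemergence spray on one- to two-leaf plants.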

corn (Zea mays) = assay: Test B pre-/postemergence plant response; details: Zea mays, 240 h, 1000 g ai/ha, 0 to 100 scale (0 no effect, 100 complete control)
Procedure, shortened: as §1

[2] = tested on: barnyardgrass (Echinochloa crus-galli); assay: Test B pre-/postemergence plant response; details: Echinochloa crus-galli, 240 h, 1000 g ai/ha, 0 to 100 scale (0 no effect, 100 complete control), read-out: Plant response rating, Barnyardgrass
Procedure, shortened: as §1

[3] = tested on: wheat (Triticum aestivum); assay: Test B pre-/postemergence plant response; details: Triticum aestivum, 240 h, 1000 g ai/ha, 0 to 100 scale (0 no effect, 100 complete control), read-out: Plant response rating, Wheat
Procedure, shortened: as §1

[4] = tested on: giant foxtail (Setaria faberii); assay: Test B pre-/postemergence plant response; details: Setaria faberi, 240 h, 1000 g ai/ha, 0 to 100 scale (0 no effect, 100 complete control), read-out: Plant response rating, Foxtail, Giant
Procedure, shortened: as §1

[5] = tested on: pigweed (Amaranthus retroflexus); assay: Test D pre-/postemergence plant response; details: Amaranthus retroflexus; for pest or weed control at 8 g/ha: 8 g ai/ha; for pest or weed control at 16 g/ha: 16 g ai/ha; for pest or weed control at 31 g/ha: 31 g ai/ha; for pest or weed control at 62 g/ha: 62 g ai/ha
From the text: (§2) Seeds of plant species selected from blackgrass (Alopecurus myosuroides), Italian ryegrass (Lolium multiflorum), winter wheat (Triticum aestivum), galium (catchweed bedstraw, Galium aparine), corn (Zea mays), large (Lg) crabgrass (Digitaria sanguinalis), giant foxtail (Setaria faberii), johnsongrass (Sorghum halepense), lambsquarters (Chenopodium album), morningglory (Ipomoea coccinea), yellow nutsedge (Cyperus esculentus), pigweed (Amaranthus retroflexus), ragweed (common ragweed, Ambrosia elatior), soybean (Glycine max), bamyardgrass (Echinochloa crus-galli), oilseed rape (Brassica napus), waterhemp (common waterhemp, Amaranthus rudis), and velvetleaf (Abutilon theophrasti) were planted into a blend of loam soil and sand and treated preemergence with test chemicals formulated in a non-phytotoxic solvent mixture which included a surfactant. At the same time, plants selected from these crop and weed species and also kochia (Kochia scoparia), wild oat (Avena fatua), and chickweed (common chickweed, Stellaria media) were planted in pots containing Redi-Earth® planting medium (Scotts Company, 14111 Scottslawn Road, Marysville, Ohio 43041) comprising spaghnum peat moss, vermiculite, wetting agent and starter nutrients and treated with postemergence applications of test chemicals formulated in the same manner. Plants ranged in height from 2 to 18 cm (1- to 4-leaf stage) for postemergence treatments. Treated plants and controls were maintained in a greenhouse for 13 to 15 days, after which time all species were compared to controls and visually evaluated. Plant response ratings, summarized in Table D, are based on a scale of 0 to 100 where 0 is no effect and 100 is complete control. A dash (-) response means no test result.

[6] = tested on: waterhemp (common waterhemp, Amaranthus rudis); assay: Test D pre-/postemergence plant response; details: Amaranthus tuberculatus; for pest or weed control at 8 g/ha: 8 g ai/ha; for pest or weed control at 16 g/ha: 16 g ai/ha; for pest or weed control at 31 g/ha: 31 g ai/ha; for pest or weed control at 62 g/ha: 62 g ai/ha
From the text: as §2

soybean (Glycine max) = assay: Test D pre-/postemergence plant response; details: Glycine max; for plant injury at 8 g/ha: 8 g ai/ha; for plant injury at 16 g/ha: 16 g ai/ha; for plant injury at 31 g/ha: 31 g ai/ha; for plant injury at 62 g/ha: 62 g ai/ha
From the text: as §2

[7] = tested on: ragweed (common ragweed, Ambrosia elatior); assay: Test D pre-/postemergence plant response; details: Ambrosia artemisiifolia; for pest or weed control at 8 g/ha: 8 g ai/ha; for pest or weed control at 16 g/ha: 16 g ai/ha; for pest or weed control at 31 g/ha: 31 g ai/ha; for pest or weed control at 62 g/ha: 62 g ai/ha
From the text: as §2

[8] = tested on: yellow nutsedge (Cyperus esculentus); assay: Test D pre-/postemergence plant response; details: Cyperus; for pest or weed control at 8 g/ha: 8 g ai/ha; for pest or weed control at 16 g/ha: 16 g ai/ha; for pest or weed control at 31 g/ha: 31 g ai/ha
From the text: as §2

[9] = post-emergence, Postemergence, scale 0 to 100 (0 no effect, 100 complete control), read-out: Pigweed plant response rating
[10] = pre-emergence, Preemergence, scale 0 to 100 (0 no effect, 100 complete control), read-out: Plant response rating, Pigweed
[11] = post-emergence, Postemergence, scale 0 to 100 (0 no effect, 100 complete control), read-out: Waterhemp plant response rating
[12] = pre-emergence, Preemergence, scale 0 to 100 (0 no effect, 100 complete control), read-out: Plant response rating, Waterhemp
[13] = post-emergence, Postemergence, scale 0 to 100 (0 no effect, 100 complete control), read-out: Soybean plant response rating
[14] = pre-emergence, Preemergence, scale 0 to 100 (0 no effect, 100 complete control), read-out: Plant response rating, Soybean
[15] = post-emergence, Postemergence, scale 0 to 100 (0 no effect, 100 complete control), read-out: Ragweed plant response rating
[16] = pre-emergence, Preemergence, scale 0 to 100 (0 no effect, 100 complete control), read-out: Plant response rating, Ragweed
[17] = post-emergence, Postemergence, scale 0 to 100 (0 no effect, 100 complete control), read-out: Nutsedge, Yellow plant response rating
[18] = pre-emergence, Preemergence, scale 0 to 100 (0 no effect, 100 complete control), read-out: Plant response rating, Nutsedge, Yellow

## FC(F)c1cc(-c2ccccc2Oc2ncc(Cl)cn2)no1 [Compound 35, 5-chloro-2-[2-[5-(difluoromethyl)-3-isoxazolyl]phenoxy]pyrimidine]
[1]; post-emergence, Postemergence
  pest or weed control at 1000 g/ha: 100%
[1]; pre-emergence, Preemergence
  pest or weed control at 1000 g/ha: 10%
Corn (Zea mays); post-emergence, Postemergence
  Corn plant response rating (crop injury, 0 = no effect, 100 = complete kill) at 1000 g/ha: 90%
Corn (Zea mays); pre-emergence, Preemergence
  Corn plant response rating (crop injury, 0 = no effect, 100 = complete kill) at 1000 g/ha: 30%
[2]; post-emergence, Postemergence
  pest or weed control at 1000 g/ha: 100%
[2]; pre-emergence, Preemergence
  pest or weed control at 1000 g/ha: 100%
[3]; post-emergence, Postemergence
  plant injury at 1000 g/ha: 80%
[3]; pre-emergence, Preemergence
  plant injury at 1000 g/ha: 60%
[4]; post-emergence, Postemergence
  pest or weed control at 1000 g/ha: 90%
[4]; pre-emergence, Preemergence
  pest or weed control at 1000 g/ha: 100%
[5]; post-emergence, Postemergence, read-out: Plant response rating (scale 0 to 100), Pigweed
  pest or weed control at 8 g/ha: 80%
[5]; [9]
  pest or weed control at 16 g/ha: 80%
  pest or weed control at 31 g/ha: 90%
[5]; post-emergence, Postemergence, scale 0 to 100, 0 no effect, 100 complete control, read-out: Plant response rating, Pigweed
  pest or weed control at 62 g/ha: 95%
[5]; [10]
  pest or weed control at 8 g/ha: 100%
  pest or weed control at 16 g/ha: 100%
  pest or weed control at 31 g/ha: 100%
  pest or weed control at 62 g/ha: 100%
[6]; post-emergence, Postemergence, read-out: Plant response rating (scale 0 to 100), Waterhemp
  pest or weed control at 8 g/ha: 75%
[6]; [11]
  pest or weed control at 16 g/ha: 75%
  pest or weed control at 31 g/ha: 95%
[6]; post-emergence, Postemergence, scale 0 to 100, 0 no effect, 100 complete control, read-out: Plant response rating, Waterhemp
  pest or weed control at 62 g/ha: 98%
[6]; [12]
  pest or weed control at 8 g/ha: 100%
  pest or weed control at 16 g/ha: 100%
  pest or weed control at 31 g/ha: 100%
  pest or weed control at 62 g/ha: 100%
Soybean (Glycine max); post-emergence, Postemergence, read-out: Plant response rating (scale 0 to 100), Soybean
  plant injury at 8 g/ha: 40%
Soybean (Glycine max); [13]
  plant injury at 16 g/ha: 65%
  plant injury at 31 g/ha: 80%
Soybean (Glycine max); post-emergence, Postemergence, scale 0 to 100, 0 no effect, 100 complete control, read-out: Plant response rating, Soybean
  plant injury at 62 g/ha: 95%
Soybean (Glycine max); [14]
  plant injury at 8 g/ha: 10%
  plant injury at 16 g/ha: 30%
  plant injury at 31 g/ha: 60%
  plant injury at 62 g/ha: 85%
[7]; post-emergence, Postemergence, read-out: Plant response rating (scale 0 to 100), Ragweed
  pest or weed control at 8 g/ha: 40%
[7]; [15]
  pest or weed control at 16 g/ha: 45%
  pest or weed control at 31 g/ha: 85%
[7]; post-emergence, Postemergence, scale 0 to 100, 0 no effect, 100 complete control, read-out: Plant response rating, Ragweed
  pest or weed control at 62 g/ha: 75%
[7]; [16]
  pest or weed control at 8 g/ha: 55%
  pest or weed control at 16 g/ha: 40%
  pest or weed control at 31 g/ha: 75%
  pest or weed control at 62 g/ha: 80%
[8]; post-emergence, Postemergence, read-out: Plant response rating (scale 0 to 100), Nutsedge, Yellow
  pest or weed control at 8 g/ha: 5%
[8]; [17]
  pest or weed control at 16 g/ha: 5%
  pest or weed control at 31 g/ha: 5%
[8]; post-emergence, Postemergence, 62 g ai/ha, scale 0 to 100, 0 no effect, 100 complete control, read-out: Plant response rating, Nutsedge, Yellow
  pest or weed control at 62 g/ha: 5%
[8]; [18]
  pest or weed control at 8 g/ha: 0%
  pest or weed control at 16 g/ha: 0%
  pest or weed control at 31 g/ha: 5%
